The results in this text go back to ChEMBL document CHEMBL1130110 (J Med Chem, 1997).

One may read the IC50 as the concentration at which inhibition is half-maximal. High values mean a need for much substance, low ones inhibition by little substance.

Assay [1] has as its target T1, Glucagon receptor (Rattus norvegicus, UniProt P30082). Nature of the assay: pA2 value against Glucagon Receptor. The conditions noted are these: read-out: pA2 (converted).
In assay [2] the target is T1, Glucagon receptor. The assay is described as follows: (§1) Binding affinity towards Glucagon receptor in rat liver plasma membranes by displacement of 125 I-labelled glucagon. The class given is cell membranes, Plasma Membrane.
Assay [3] has as its target T1, Glucagon receptor. Described as §1. The class given is cell membranes.
Assay [4] deals with T1, Glucagon receptor. The assay is described as follows: Effective concentration was determined in cAMP accumulation assay using isolated hepatocytes in the presence rolipram. The class given is functional, cell-based. Conditions: hepatocyte. (In general: Changes in cAMP serve as a functional read-out for many G protein-coupled receptors.)

T1 sequence (P30082 whole entry): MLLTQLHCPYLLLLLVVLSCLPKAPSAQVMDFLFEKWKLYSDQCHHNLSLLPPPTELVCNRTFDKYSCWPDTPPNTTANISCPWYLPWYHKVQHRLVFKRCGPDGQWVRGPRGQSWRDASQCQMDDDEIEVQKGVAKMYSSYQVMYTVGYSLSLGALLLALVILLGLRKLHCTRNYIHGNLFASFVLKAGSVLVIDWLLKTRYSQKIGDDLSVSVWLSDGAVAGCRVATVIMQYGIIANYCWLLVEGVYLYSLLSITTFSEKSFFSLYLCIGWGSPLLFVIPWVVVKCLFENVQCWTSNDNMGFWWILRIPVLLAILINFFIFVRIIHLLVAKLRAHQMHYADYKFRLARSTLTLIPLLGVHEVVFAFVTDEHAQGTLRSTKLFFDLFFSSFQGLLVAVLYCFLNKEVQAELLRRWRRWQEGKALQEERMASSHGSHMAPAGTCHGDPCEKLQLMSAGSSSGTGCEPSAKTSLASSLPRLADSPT

Regarding `CSCC[C@H](NC(=O)[C@H](CC(C)C)NC(=O)[C@H](Cc1c[nH]c2ccccc12)NC(=O)[C@H](CCC(N)=O)NC(=O)[C@@H](NC(=O)[C@H](Cc1ccccc1)NC(=O)[C@H](CC(=O)O)NC(=O)[C@H](CCC(N)=O)NC(=O)[C@H](C)NC(=O)[C@H](CCCNC(=N)N)NC(=O)[C@H](CCCNC(=N)N)NC(=O)[C@H](CO)NC(=O)[C@H](CC(=O)O)NC(=O)[C@H](CC(C)C)NC(=O)[C@H](Cc1ccc(O)cc1)NC(=O)[C@H](CCCCN)NC(=O)[C@H](CO)NC(=O)[C@H](Cc1ccc(O)cc1)NC(=O)[C@H](CCC(=O)O)NC(=O)[C@H](CO)NC(=O)[C@@H](NC(=O)[C@H](C)NC(=O)[C@@H](NC(=O)CNC(=O)[C@H](CCC(N)=O)NC(=O)[C@@H](N)CO)[C@@H](C)O)[C@@H](C)O)C(C)C)C(=O)N[C@@H](CC(N)=O)C(=O)N[C@H](C(N)=O)[C@@H](C)O`, at Glucagon receptor [1], the Kb is 398 nM. This molecule also returned a half-maximal inhibitory concentration (IC50) on Glucagon receptor [2] of 126 nM.

The molecule `CSCC[C@H](NC(=O)[C@H](CC(C)C)NC(=O)[C@H](Cc1c[nH]c2ccccc12)NC(=O)[C@H](CCC(N)=O)NC(=O)[C@@H](NC(=O)[C@H](Cc1ccccc1)NC(=O)[C@H](CC(=O)O)NC(=O)[C@H](CCC(N)=O)NC(=O)[C@H](C)NC(=O)[C@H](CCCN=C(N)N)NC(=O)[C@H](CCCN=C(N)N)NC(=O)[C@H](CO)NC(=O)[C@H](CC(=O)O)NC(=O)[C@H](CC(C)C)NC(=O)[C@H](Cc1ccc(O)cc1)NC(=O)[C@H](CCCCN)NC(=O)[C@H](CO)NC(=O)[C@H](Cc1ccc(O)cc1)NC(=O)[C@H](CCC(=O)O)NC(=O)[C@H](CO)NC(=O)[C@@H](NC(=O)[C@@H](NC(=O)CNC(=O)[C@H](CCC(N)=O)NC(=O)[C@H](CO)NC(=O)[C@@H](N)Cc1c[nH]cn1)[C@@H](C)O)[C@@H](C)O)C(C)C)C(=O)N[C@@H](CC(N)=O)C(=O)N[C@H](C(N)=O)[C@@H](C)O` registered an IC50 at Glucagon receptor [3] of 113 nM. At Glucagon receptor [1], the Kb was 631 nM. Moreover, the EC50 entry at Glucagon receptor [4] is on record as “Not Active”.
